BindingDB's records for doi:10.1021/jm00069a017 (University of Minnesota, 1993)

Tests used:
[1] = Selective binding affinity against Opioid receptor delta 2, using [3H]DSLET as radioligand
[2] = Selective binding affinity against Opioid receptor delta 1, using [3H]DPDPE as radioligand

For CN1CC[C@]23c4c5ccc(O)c4O[C@H]2C(=O)C2(Cc4ccccc4C2)C[C@@]3(O)[C@H]1C5 [Spiroindanyloxymorphone], the Ki [1] was 3.3 nM and the Ki [2] was 1.4 nM.
